Measured values taken from US10702528B2, “Hepatitis B antiviral agents” (Enanta Pharmaceuticals, Inc., priority 2015, dated 2020).

How the values were obtained:
[1] = system: HBV; experiment: HepAD38 antiviral screen: reduction of viral product accumulation (virion DNA by qPCR; HBsAg/HBeAg ELISA); type: cell-based; conditions: Hepatitis B virus, 120 h; HepAD38 cells, harvest five days after compound addition; reduction of viral product accumulation relative to no drug controls; read-out: HepAD38 EC50
Method: (§1) Methods: HepAD38 cells are maintained as previously reported (Ladner et al, Antimicrob. Agents Chemother. 1997, […], 1715). Briefly, cells are passaged upon attaining confluency in DMEM/F12 media in the presence of 10% FBS, Penn/Strep, 250 μg/mL G418, and 1 μg/ml tetracycline. Novel compounds are screened by first washing cells three times with PBS to remove tetracycline, and plating in 96 well plates at 35,000 cells/well. Compounds dissolved in DMSO are then diluted 1:200 into wells containing cells. Five days after compound addition, material is harvested for analysis. For an extended 8 day analysis, cells are plated and treated as described above, but media and compound are refreshed on d2 and d5 post initial treatment.
On harvest day, virion DNA is obtained by lysing with Sidestep Lysis and Stabilization Buffer and then quantified via quantitative real time PCR. Commercially available ELISA kits are used to quantitate the viral proteins HBsAg (Alpco) or HbeAg (US Biological) by following the manufacturer's recommended protocol after diluting samples to match the linear range of their respective assays. Irrespective of readout, compound concentrations that reduce viral product accumulation in the cell lysates or supernatants by relative to no drug controls (EC50) are reported; EC50 ranges are as follows: A<1 μM; B 1-10 μM; C>10 μM.

[2] = Compound toxicity by ATPlite 1 Step (total ATP levels) in HepAD38 cells; type: cell-based; conditions: human, day of harvest, concentration reducing total ATP levels by 50% relative to no drug controls
Method: as §1
Additionally, on day of harvest, compound toxicity is evaluated by treating cells with ATPlite 1 Step according to the manufacturer's protocol. Compound concentrations that reduce total ATP levels in wells by 50% relative to no drug controls (CC50) are reported; CC50 ranges are as follows: A>30 μM; B 10-30 μM; C<10 μM.

| SMILES | EC50 [1] | CC50 [2] |
| --- | --- | --- |
| Cn1ccc(C2=C(CN3C4CCC3COC4)NC(c3nccs3)=N[C@H]2c2ccc(F)cc2Cl)n1 [Example 52] | < 1 µM | – |
| CC1=C(c2ccccc2)C(c2ccc(F)cc2Cl)N=C(c2nccs2)N1 (racemic) [Example 18] | < 1 µM | 10 to 30 µM |
| CC1=C(S(C)(=O)=O)C(c2ccc(F)cc2Cl)N=C(c2nccs2)N1 (racemic) [Example 25] | > 10 µM | > 30 µM |
| CCOC(=O)C1=C(CN2CCC[C@H]2C(=O)NS(C)(=O)=O)NC(c2nccs2)=NC1c1ccc(F)cc1Cl (stereo partly shown) [Example 1] | 1 to 10 µM | 10 to 30 µM |
| CC1=C(c2ccccn2)C(c2ccc(F)cc2Cl)N=C(c2nccs2)N1 (racemic) [Example 19] | 1 to 10 µM | > 30 µM |
| CCOC(=O)C1=C(CN2CC(F)(F)C[C@H]2C(=O)NS(C)(=O)=O)NC(c2nccs2)=NC1c1ccc(F)cc1Cl (stereo partly shown) [Example 2] | 1 to 10 µM | > 30 µM |
| CC1=C(c2ccn(C)n2)[C@H](c2ccc(F)cc2Cl)N=C(c2nccs2)N1 (single isomer, unassigned) [Example 16b] | < 1 µM | > 30 µM |
| CC1=C(c2ncco2)C(c2ccc(F)cc2Cl)N=C(c2nccs2)N1 (racemic) [Example 13] | < 1 µM | > 30 µM |
| CC1=C(c2ccnn2C)C(c2ccc(F)cc2Cl)N=C(c2nccs2)N1 (racemic) [Example 17] | < 1 µM | > 30 µM |
| CCn1ccc(C2=C(C)NC(c3nccs3)=NC2c2ccc(F)cc2Cl)n1 (stereo not shown) [Example 34] | < 1 µM | > 30 µM |
| CCOC(=O)[C@@H]1CC(F)(F)CN1CC1=C(c2ccn(C)n2)C(c2ccc(F)cc2Cl)N=C(c2nccs2)N1 (stereo partly shown) [Example 39] | < 1 µM | > 30 µM |
| Cn1ccc(C2=C(CC#N)NC(c3nccs3)=NC2c2ccc(F)cc2Cl)n1 (stereo not shown) [Example 40] | 1 to 10 µM | > 30 µM |
| Cn1ccc(C2=C(CO)NC(c3nccs3)=NC2c2ccc(F)cc2Cl)n1 (stereo not shown) [Example 41] | < 1 µM | 10 to 30 µM |
| CCOC(=O)[C@@H]1CC(F)(F)CN1CC1=C(C(=O)NS(C)(=O)=O)C(c2ccc(F)cc2Cl)N=C(c2nccs2)N1 (stereo partly shown) [Example 4] | > 10 µM | > 30 µM |
| CC1=C(C(=O)NS(C)(=O)=O)C(c2ccc(F)cc2Cl)N=C(c2nccs2)N1 (racemic) [Example 21] | > 10 µM | > 30 µM |
| CC(=O)C1=C(C)NC(c2nccs2)=NC1c1ccc(F)cc1Cl (racemic) [Example 11] | < 1 µM | > 30 µM |
| Cn1ccc(C2=CNC(c3nccs3)=NC2(C)c2ccc(F)cc2)n1 (stereo not shown) [Example 50] | 1 to 10 µM | – |
| CCOC(=O)C1=C(C)NC(C(=O)OC)=NC1c1ccc(F)cc1Cl (stereo not shown) [Example 31] | 1 to 10 µM | > 30 µM |
| COC(=O)/C=C1\NC(c2nccs2)=NC(c2ccc(F)cc2Cl)C1c1ccn(C)n1 (stereo not shown) [Example 45] | 1 to 10 µM | 10 to 30 µM |
| Cn1ccc(C2=CNC(c3nccs3)=NC2c2ccc(F)cc2Cl)n1 (stereo not shown) [Example 36] | < 1 µM | > 30 µM |
| CNS(=O)(=O)C1=C(C)NC(c2nccs2)=NC1c1ccc(F)cc1Cl (stereo not shown) [Example 28] | > 10 µM | > 30 µM |
| CC1=C(c2ccn(C)n2)C(C)(c2ccc(F)cc2Cl)N=C(c2nccs2)N1 (stereo not shown) [Example 48] | > 10 µM | – |
| CN(C)CC1=C(c2ccn(C)n2)C(c2ccc(F)cc2Cl)N=C(c2nccs2)N1 (stereo not shown) [Example 37] | > 10 µM | 10 to 30 µM |
| CC1=C(CN(C)C)C(c2ccc(F)cc2Cl)N=C(c2nccs2)N1 (racemic) [Example 8] | > 10 µM | > 30 µM |
| Cn1ccc(C2=C(CF)NC(c3nccs3)=NC2c2ccc(F)cc2Cl)n1 (stereo not shown) [Example 43] | < 1 µM | > 30 µM |
| C=CC1=C(C)NC(c2nccs2)=NC1c1ccc(F)cc1Cl (racemic) [Example 12] | < 1 µM | > 30 µM |

| SMILES | EC50 [1] | CC50 [2] |
| --- | --- | --- |
| CC1=C(c2ncco2)[C@@H](c2ccc(F)cc2Cl)N=C(c2nccs2)N1 (single isomer, unassigned) [Example 13a] | 1 to 10 µM | > 30 µM |
| CC1=C(c2nccn2C)C(c2ccc(F)cc2Cl)N=C(c2nccs2)N1 (stereo not shown) [Example 33] | 1 to 10 µM | > 30 µM |
| CCOC(=O)C1=CNC(c2nccs2)=NC1(C)c1ccc(F)cc1 (stereo not shown) [Example 49] | 1 to 10 µM | – |
| COC(=O)[C@@H]1CCC[C@H]1N1C[C@@H]2CN(CC3=C(c4ccn(C)n4)[C@H](c4ccc(F)cc4Cl)N=C(c4nccs4)N3)CCN2C1=O [Example 55] | 1 to 10 µM | – |
| CC1=C(c2nn[nH]n2)C(c2ccc(F)cc2Cl)N=C(c2nccs2)N1 (stereo not shown) [Example 27] | > 10 µM | > 30 µM |
| CC1=C(CO)C(c2ccc(F)cc2Cl)N=C(c2nccs2)N1 (racemic) [Example 9] | 1 to 10 µM | > 30 µM |
| CC1=C(c2ncccn2)C(c2ccc(F)cc2Cl)N=C(c2nccs2)N1 (racemic) [Example 20] | 1 to 10 µM | > 30 µM |
| CC1=C(C#N)C(c2ccc(F)cc2Cl)N=C(c2nccs2)N1 (stereo not shown) [Example 32] | < 1 µM | > 30 µM |
| CC1=C(c2nccs2)C(c2ccc(F)cc2Cl)N=C(c2nccs2)N1 (racemic) [Example 14] | < 1 µM | > 30 µM |
| CC1=C(c2ncco2)[C@H](c2ccc(F)cc2Cl)N=C(c2nccs2)N1 (single isomer, unassigned) [Example 13b] | < 1 µM | > 30 µM |
| CCOC(=O)C1=C(C)NC(N2CCCC2=O)=NC1c1ccc(F)cc1Cl (stereo not shown) [Example 29] | > 10 µM | > 30 µM |
| CC1=C(c2cc(C)no2)C(c2ccc(F)cc2Cl)N=C(c2nccs2)N1 (racemic) [Example 15] | < 1 µM | > 30 µM |
| CC1=C(c2ncco2)C(C)(c2ccc(F)cc2Cl)N=C(c2nccs2)N1 (stereo not shown) [Example 47] | > 10 µM | – |
| Cn1ccc(C2=C(CC(=O)O)NC(c3nccs3)=NC2c2ccc(F)cc2Cl)n1 (stereo not shown) [Example 46] | > 10 µM | 10 to 30 µM |
| CCOC(=O)[C@@H]1CC(F)(F)CC1CC1=C(C#N)C(c2ccc(F)cc2Cl)N=C(c2nccs2)N1 (stereo partly shown) [Example 5] | 1 to 10 µM | > 30 µM |
| C=CCOC(=O)C1=CNC(c2nccs2)=NC1(C)c1ccc(F)cc1 (stereo not shown) [Example 51] | 1 to 10 µM | – |
| CC1=C(c2ccn(C)n2)C(c2ccc(F)cc2Cl)N=C(c2nccs2)N1 (racemic) [Example 16] | < 1 µM | > 30 µM |
| CC1=C(c2ccn(C)n2)[C@@H](c2ccc(F)cc2Cl)N=C(c2nccs2)N1 (single isomer, unassigned) [Example 16a] | < 1 µM | > 30 µM |
| CCOC(=O)C1=C(C)NC(N2CCCC2)=NC1c1ccc(F)cc1Cl (stereo not shown) [Example 30] | > 10 µM | > 30 µM |
| CCOC(=O)C1=C(CN2CC(F)(F)C[C@H]2C#N)NC(c2nccs2)=NC1c1ccc(F)cc1Cl (stereo partly shown) [Example 3] | < 1 µM | > 30 µM |
| COCC1=C(c2ccn(C)n2)C(c2ccc(F)cc2Cl)N=C(c2nccs2)N1 (stereo not shown) [Example 35] | < 1 µM | > 30 µM |
| CC1=C(C(=O)N(C)S(C)(=O)=O)C(c2ccc(F)cc2Cl)N=C(c2nccs2)N1 (racemic) [Example 22] | > 10 µM | > 30 µM |
| Cn1ccc(C2=C(CN=[N+]=[N-])NC(c3nccs3)=NC2c2ccc(F)cc2Cl)n1 (stereo not shown) [Example 42] | < 1 µM | > 30 µM |
| Cn1ccc(C2=C(CN3CCOCC3)NC(c3nccs3)=N[C@H]2c2ccc(F)cc2Cl)n1 [Example 53] | < 1 µM | – |
| CCOC(=O)C1=CNC(c2nccs2)=NC1(C)c1ccc(F)cc1Cl (stereo not shown) [Example 57] | 1 to 10 µM | – |
| Cn1ccc(C2=C(CN3C4CCC3CC(O)C4)NC(c3nccs3)=N[C@H]2c2ccc(F)cc2Cl)n1 (stereo partly shown) [Example 54] | 1 to 10 µM | – |
